Measurements taken from US20100305113A1, “Substituted Imidazopyridazines as Lipid Kinase Inhibitors” (priority 2007, published 2010).

Columns and labels:
Format in all cases: biochemical
Conditions in all cases: Enzymatic Data
PI3K alfa = biological target: T1, PI3K alfa (Homo sapiens, UniProt P42336); experiment: PI3K alfa enzymatic assay (Kinase-Glo luminescence)
T1 construct: p85(iSH2) fusion partner (same polypeptide; see partner chain) (N); 12x Gly linker (N); His tag (C); made in house; host or cells: baculovirus; Tn5 (Trichoplusia ni) or TiniPro insect cells
T1 sequence (P42336 with tags, fused parts or gaps limits assumed): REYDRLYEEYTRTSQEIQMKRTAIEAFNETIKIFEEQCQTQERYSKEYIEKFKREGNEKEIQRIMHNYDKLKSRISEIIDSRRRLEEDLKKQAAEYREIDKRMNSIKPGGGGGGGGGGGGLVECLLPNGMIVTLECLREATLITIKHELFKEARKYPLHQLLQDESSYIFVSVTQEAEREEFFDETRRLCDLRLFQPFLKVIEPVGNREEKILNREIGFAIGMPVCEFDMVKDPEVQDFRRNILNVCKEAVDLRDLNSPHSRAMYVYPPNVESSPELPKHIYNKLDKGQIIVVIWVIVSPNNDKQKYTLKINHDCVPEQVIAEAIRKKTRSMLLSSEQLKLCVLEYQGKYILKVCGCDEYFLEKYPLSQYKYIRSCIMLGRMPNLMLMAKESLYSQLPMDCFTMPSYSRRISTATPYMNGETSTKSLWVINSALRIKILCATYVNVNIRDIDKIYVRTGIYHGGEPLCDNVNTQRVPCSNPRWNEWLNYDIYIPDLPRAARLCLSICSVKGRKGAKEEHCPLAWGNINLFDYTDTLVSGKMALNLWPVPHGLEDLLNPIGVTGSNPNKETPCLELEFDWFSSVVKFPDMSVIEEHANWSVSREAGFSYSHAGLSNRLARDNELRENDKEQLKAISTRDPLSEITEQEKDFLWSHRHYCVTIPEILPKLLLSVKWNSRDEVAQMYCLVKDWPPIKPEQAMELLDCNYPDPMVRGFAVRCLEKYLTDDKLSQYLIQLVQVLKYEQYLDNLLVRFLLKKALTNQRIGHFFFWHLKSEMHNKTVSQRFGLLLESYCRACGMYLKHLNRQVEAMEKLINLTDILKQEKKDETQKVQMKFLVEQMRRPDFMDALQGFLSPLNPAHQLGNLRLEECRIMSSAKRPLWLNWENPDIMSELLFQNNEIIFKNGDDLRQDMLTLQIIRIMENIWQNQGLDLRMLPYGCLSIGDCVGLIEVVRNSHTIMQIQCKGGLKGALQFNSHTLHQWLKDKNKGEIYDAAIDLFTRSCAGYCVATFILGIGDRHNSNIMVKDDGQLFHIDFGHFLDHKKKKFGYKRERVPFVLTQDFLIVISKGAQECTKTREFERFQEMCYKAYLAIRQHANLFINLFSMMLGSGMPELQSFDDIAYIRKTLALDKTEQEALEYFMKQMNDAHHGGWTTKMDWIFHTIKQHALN
Experimental: (§1) In a more preferred assay, the kinase reaction is performed in a final volume of 10 μL per well of a low volume non binding CORNING, 384 well black plate (Cat. No. #3676). The final concentrations of ATP and phosphatidyl inositol (PI) in the assay are 1 μM and 10 μg/mL respectively. The reaction is started by the addition of ATP.
(§2) The components of the assay are added per well as follows:
(§3) 50 nL test compounds in 90% DMSO per well, in columns 1-20, 8 concentrations (⅓ and 1/3.33 serial dilution step) in single. • Low control: 50 nL of 90% DMSO in half the wells of columns 23-24 (0.45% in final). • High control: 50 nL of reference compound (e.g. compound of Example 7 in WO 2006/122806, incorporated by reference herein that regard) in the other half of columns 23-24 (2.5 μM in final). • Standard: 50 nL of reference compound as just mentioned diluted as the test compounds in columns 21-22 • 20 mL ‘buffer’ are prepared per assay: • 200 μL of 1M TRIS HCl pH7.5 (10 mM in final) • 60 μL of 1M MgCl2 (3 mM in final) • 500 μL of 2M NaCl (50 mM in final) • 100 μL of 10% CHAPS (0.05% in final) • 200 μL of 100 mM DTT (1 mM in final) • 18.94 mL of nanopure water • 10 mL ‘PI’ are prepared per assay: • 200 μL of 1 mg/ml L-alpha-Phosphatidylinositol (Liver Bovine, Avanti Polar Lipids Cat. No. 840042C MW=909.12) prepared in 3% OctylGlucoside ([…]) • 9.8 mL of ‘buffer’ • 10 mL ‘ATP’ are prepared per assay: • 6.7 μL of 3 mM stock of ATP giving a final concentration of 1 μM per well • 10 mL of ‘buffer’ • 2.5 mL of each PI3K construct are prepared per assay in ‘PI’ with the following final concentration: • 10 nM PI3K alfa BV-1075 • 25 nM beta BV-949 • 10 nM delta BV-1060 • 150 nM gamma BV-950 • 5 μL of ‘PI/PI3K’ are added per well. • 5 μl ‘ATP’ are added per well to start the reaction. • The plates are then incubated at room temperature for 60 minutes (alfa, beta, delta) or 120 minutes (gamma). • The reaction is terminated by the addition of 10 μL Kinase-Glo (Promega Cat. No. #6714). • The assay plates are read after 10 minutes in Synergy 2 reader (BioTek, Vermont USA) with an integration time of 100 milliseconds and sensitivity set to 191. • Output: The High control is around 60′000 counts and the Low control is 30′000 or lower • This luminescence assay gives a useful Z′ ratio between 0.4 and 0.7 The Z′ value is a universal measurement of the robustness of an assay. A Z′ between 0.5 and 1.0 is considered an excellent assay.
(§4) IC50 is determined by a four parameter curve fitting routine that comes aloneg with “excel fit”. A 4 Parameter logistic equation is used to calculate IC50 values (IDBS XLfit) of the percentage inhibition of each compound at 8 concentrations (usually 10, 3.0, 1.0, 0.3, 0.1, 0.030, 0.010 and 0.003 μM). Alternatively, IC50 values are calculated using idbsXLfit model 204, which is a 4 parameter logistic model.

PI3K beta = biological target: T2, PI3K beta (Homo sapiens, UniProt P42338); experiment: PI3K beta enzymatic assay (Kinase-Glo luminescence)
T2 construct: for the full-length p110-b subunit are generated and fused by overlapping PCR; p85(iSH2) fusion partner (same polypeptide; see partner chain) (N); Gly linker (N); His tag (C); made in house; host or cells: baculovirus; Tn5 (Trichoplusia ni) or TiniPro insect cells
T2 sequence (P42338 with tags, fused parts or gaps limits assumed): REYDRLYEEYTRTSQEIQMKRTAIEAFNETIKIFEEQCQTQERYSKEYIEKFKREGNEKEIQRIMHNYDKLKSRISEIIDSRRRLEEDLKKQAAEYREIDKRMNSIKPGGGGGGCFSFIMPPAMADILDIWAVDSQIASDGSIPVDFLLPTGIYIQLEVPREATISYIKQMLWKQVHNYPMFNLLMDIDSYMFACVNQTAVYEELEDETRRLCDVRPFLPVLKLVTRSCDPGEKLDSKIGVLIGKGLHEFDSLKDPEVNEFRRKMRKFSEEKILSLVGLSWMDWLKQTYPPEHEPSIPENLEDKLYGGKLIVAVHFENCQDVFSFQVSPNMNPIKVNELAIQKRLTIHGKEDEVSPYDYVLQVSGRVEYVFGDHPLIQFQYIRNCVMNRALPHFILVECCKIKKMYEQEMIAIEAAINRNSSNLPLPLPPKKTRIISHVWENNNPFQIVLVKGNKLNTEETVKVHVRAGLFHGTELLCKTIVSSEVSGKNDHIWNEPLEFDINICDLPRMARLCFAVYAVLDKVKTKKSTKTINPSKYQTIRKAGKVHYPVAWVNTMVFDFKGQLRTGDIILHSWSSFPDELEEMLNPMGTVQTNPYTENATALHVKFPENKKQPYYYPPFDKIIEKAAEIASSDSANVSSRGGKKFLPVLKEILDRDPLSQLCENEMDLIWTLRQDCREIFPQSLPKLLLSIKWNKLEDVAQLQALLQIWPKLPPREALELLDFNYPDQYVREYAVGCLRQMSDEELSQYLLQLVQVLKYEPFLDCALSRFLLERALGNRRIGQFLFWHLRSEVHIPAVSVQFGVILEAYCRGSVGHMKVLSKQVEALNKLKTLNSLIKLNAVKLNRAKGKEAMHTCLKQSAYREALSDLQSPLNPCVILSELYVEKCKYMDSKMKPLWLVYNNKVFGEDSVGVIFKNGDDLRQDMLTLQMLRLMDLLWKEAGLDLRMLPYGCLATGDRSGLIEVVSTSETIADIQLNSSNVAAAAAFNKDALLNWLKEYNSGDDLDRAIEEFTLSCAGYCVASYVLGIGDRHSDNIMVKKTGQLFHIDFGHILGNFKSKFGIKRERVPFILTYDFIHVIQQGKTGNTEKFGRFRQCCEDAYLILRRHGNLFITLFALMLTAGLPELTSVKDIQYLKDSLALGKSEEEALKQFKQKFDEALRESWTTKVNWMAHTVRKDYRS
Experimental: as §1, §2, §3
PI3Kβ BV-949 p85(iSH2)-Gly linker-p110b (Full-Length)-C-Term His Tag
as §4

PI3K delta = biological target: T3, PI3K delta (Homo sapiens, UniProt O00329); experiment: PI3K delta enzymatic assay (Kinase-Glo luminescence)
T3 construct: for the full-length p110-d subunit are generated and fused by overlapping PCR; p85(iSH2) fusion partner (same polypeptide; see partner chain) (N); Gly linker (N); His tag (C); made in house; host or cells: baculovirus; Tn5 (Trichoplusia ni) or TiniPro insect cells
T3 sequence (O00329 with tags, fused parts or gaps limits assumed): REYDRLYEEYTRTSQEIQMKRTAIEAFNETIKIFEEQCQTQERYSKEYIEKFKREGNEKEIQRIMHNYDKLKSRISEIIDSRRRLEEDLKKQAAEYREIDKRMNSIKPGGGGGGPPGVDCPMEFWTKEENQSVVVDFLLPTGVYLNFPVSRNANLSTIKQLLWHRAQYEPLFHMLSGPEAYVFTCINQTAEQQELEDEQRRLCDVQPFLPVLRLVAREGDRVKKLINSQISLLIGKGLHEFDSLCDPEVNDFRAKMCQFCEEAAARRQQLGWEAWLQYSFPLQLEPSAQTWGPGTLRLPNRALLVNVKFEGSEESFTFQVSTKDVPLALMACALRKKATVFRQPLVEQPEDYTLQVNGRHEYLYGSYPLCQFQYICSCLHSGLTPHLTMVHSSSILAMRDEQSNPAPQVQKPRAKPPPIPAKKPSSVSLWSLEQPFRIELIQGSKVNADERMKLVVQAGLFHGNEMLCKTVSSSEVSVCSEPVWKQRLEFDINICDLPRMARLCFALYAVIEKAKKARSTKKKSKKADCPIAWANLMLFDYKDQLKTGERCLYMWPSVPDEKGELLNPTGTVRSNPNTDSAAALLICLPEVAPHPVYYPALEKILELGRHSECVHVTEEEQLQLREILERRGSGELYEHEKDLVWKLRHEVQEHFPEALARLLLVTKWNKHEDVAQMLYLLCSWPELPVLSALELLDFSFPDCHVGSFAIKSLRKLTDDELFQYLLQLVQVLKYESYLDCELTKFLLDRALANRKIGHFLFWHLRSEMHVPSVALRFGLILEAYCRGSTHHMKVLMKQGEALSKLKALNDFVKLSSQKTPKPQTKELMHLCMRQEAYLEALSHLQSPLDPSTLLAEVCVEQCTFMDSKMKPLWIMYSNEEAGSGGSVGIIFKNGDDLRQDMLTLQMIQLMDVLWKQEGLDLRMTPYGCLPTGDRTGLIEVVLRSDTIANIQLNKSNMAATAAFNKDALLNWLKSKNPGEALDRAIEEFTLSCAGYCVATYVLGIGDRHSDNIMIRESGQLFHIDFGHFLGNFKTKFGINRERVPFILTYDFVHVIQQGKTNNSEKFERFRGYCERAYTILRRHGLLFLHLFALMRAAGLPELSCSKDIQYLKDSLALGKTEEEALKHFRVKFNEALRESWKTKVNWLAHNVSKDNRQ
Experimental: as §1, §2, §3
PI3Kδ BV-1060 p85(iSH2)-Gly Linker-p110d (Full-Length)-C-term His Tact
as §4

PI3K gamma = biological target: T4, PI3K gamma (Homo sapiens, UniProt P48736); experiment: PI3K gamma enzymatic assay (Kinase-Glo luminescence)
T4 construct: His tag (C); made in house; host or cells: construct from Roger Williams lab (MRC LMB); baculovirus (pVL1393); Tn5 (Trichoplusia ni) or TiniPro insect cells
T4 sequence (P48736 144-1102 limits assumed): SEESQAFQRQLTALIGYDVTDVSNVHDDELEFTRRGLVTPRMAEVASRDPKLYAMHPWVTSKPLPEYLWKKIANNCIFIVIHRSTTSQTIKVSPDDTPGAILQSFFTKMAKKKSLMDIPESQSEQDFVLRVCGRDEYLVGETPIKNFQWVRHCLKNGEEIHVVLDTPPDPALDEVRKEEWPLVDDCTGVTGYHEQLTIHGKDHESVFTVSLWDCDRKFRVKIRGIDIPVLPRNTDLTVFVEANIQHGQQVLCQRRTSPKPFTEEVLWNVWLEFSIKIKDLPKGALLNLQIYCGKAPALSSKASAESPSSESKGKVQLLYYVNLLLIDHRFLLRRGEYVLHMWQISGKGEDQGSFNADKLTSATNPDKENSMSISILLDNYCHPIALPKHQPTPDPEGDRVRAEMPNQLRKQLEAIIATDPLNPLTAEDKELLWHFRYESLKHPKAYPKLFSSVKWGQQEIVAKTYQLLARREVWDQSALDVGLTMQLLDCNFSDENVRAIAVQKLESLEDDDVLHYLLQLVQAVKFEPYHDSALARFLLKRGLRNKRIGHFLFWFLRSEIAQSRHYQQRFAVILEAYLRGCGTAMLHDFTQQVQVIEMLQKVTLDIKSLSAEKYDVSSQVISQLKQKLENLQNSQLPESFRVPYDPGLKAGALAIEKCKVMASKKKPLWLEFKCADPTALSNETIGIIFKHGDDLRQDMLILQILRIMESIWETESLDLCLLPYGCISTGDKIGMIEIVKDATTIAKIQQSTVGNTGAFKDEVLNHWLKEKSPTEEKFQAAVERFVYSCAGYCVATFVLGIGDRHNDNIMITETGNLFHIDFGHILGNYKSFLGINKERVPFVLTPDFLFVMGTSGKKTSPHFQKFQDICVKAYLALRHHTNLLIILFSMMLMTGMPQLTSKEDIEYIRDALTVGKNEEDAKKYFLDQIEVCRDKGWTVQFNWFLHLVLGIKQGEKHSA
Experimental: as §1, §2, §3, §4

| IC50 (PI3K alfa) [nM] | IC50 (PI3K beta) [nM] | IC50 (PI3K delta) [nM] | IC50 (PI3K gamma) [nM] | SMILES |
| --- | --- | --- | --- | --- |
| 99 | > 9100 | 2040 | 648 | COc1cc(-c2ccc3nc(C)c(-c4cnc(N)c(C(F)(F)F)c4)n3n2)ccc1OCCNC(=O)OC(C)C [Example 79] |
| 220 | 3240 | 1390 | 358 | COc1ccc(-c2ccc3nc(C)c(-c4cc[nH]n4)n3n2)cc1OC [Example 20, 6-(3,4-Dimethoxy-phenyl)-2-methyl-3-(1H-pyrazol-3-yl)-imidazo[1,2-b]pyridazine] |
| 296 | > 9100 | 357 | 98 | COc1ccc(-c2ccc3nc(C)c(-c4ccnc(NCC5CC5)n4)n3n2)cc1OC [Example 87, Cyclopropylmethyl-{4-[6-(3,4-dimethoxy-phenyl)-2-methyl-imidazo[1,2-b]pyridazin-3-yl]-pyrimidin-2-yl}-amine] |
| 136 | > 9100 | 124 | 511 | COc1ccc(-c2ccc3nc(C)c(-c4ccn(S(=O)(=O)c5cccc(C#N)c5)n4)n3n2)cc1OC [Example 23, 3-{3-[6-(3,4-Dimethoxy-phenyl)-2-methyl-imidazo[1,2-b]pyridazin-3-yl]-pyrazole-1-sulfonyl}-benzonitrile] |
| 985 | 7080 | 2270 | 6790 | Cc1nc2ccc(-c3ccc4c(c3)OCO4)nn2c1-c1cnc(N)c(C(F)(F)F)c1 [Example 108, 5-(6-Benzo[1,3]dioxol-5-yl-2-methyl-imidazo[1,2-b]pyridazin-3-yl)-3-trifluoromethyl-pyridin-2-ylamine] |
| > 9100 | > 9100 | > 9100 | > 9100 | CCS(=O)(=O)c1ccc(-c2c(C)nc3ccc(-c4ccc(OC5CCN(C(=O)OC(C)(C)C)CC5)c(OC)c4)nn23)cc1 [Example 99, 4-{4-[3-(4-Ethanesulfonyl-phenyl)-2-methyl-imidazo[1,2-b]pyridazin-6-yl]-2-methoxy-phenoxy}-piperidine-1-carboxylic acid tert-butyl ester] |
| 181 | 4480 | 2020 | 797 | COc1ccc(-c2ccc3nc(C)c(-c4cnccn4)n3n2)cc1OC [Example 17, 6-(3,4-Dimethoxy-phenyl)-2-methyl-3-pyrazin-2-yl-imidazo[1,2-b]pyridazine] |
| 93 | > 9100 | 1590 | 2740 | COc1cc(-c2ccc3nc(C)c(-c4cnc(N)c(C(F)(F)F)c4)n3n2)ccc1OCCNC(=O)c1ccncc1 [Example 29] |
| 28 | > 9100 | 1660 | 2520 | COc1cc(-c2ccc3nc(C)c(-c4cnc(N)c(C(F)(F)F)c4)n3n2)ccc1OCCNC(=O)Nc1cccnc1 [Example 51] |
| 38 | > 9100 | 748 | 4320 | COc1cc(-c2ccc3nc(C)c(-c4cnc(N)c(C(F)(F)F)c4)n3n2)ccc1OCCNC(=O)c1cccnc1 [Example 31] |
| 31 | 4860 | 424 | 805 | COc1cc(-c2ccc3nc(C)c(-c4cnc(N)c(C(F)(F)F)c4)n3n2)ccc1OCCCN1CCNC1=O [Example 96, 1-(3-{4-[3-(6-Amino-5-trifluoromethyl-pyridin-3-yl)-2-methyl-imidazo[1,2-b]pyridazin-6-yl]-2-methoxy-phenoxy}-propyl)-imidazolidin-2-one] |
| 2360 | > 9100 | 1740 | 3460 | COCCOCCOCCOc1ccc(-c2ccc3nc(C)c(-c4ccc(S(C)(=O)=O)cc4)n3n2)cc1OC [Example 90, 3-(4-Methanesulfonyl-phenyl)-6-(3-methoxy-4-{2-[2-(2-methoxy-ethoxy)-ethoxy]-ethoxy}-phenyl)-2-methyl-imidazo[1,2-b]pyridazine] |
| 15 | 193 | 24 | 507 | COc1cc(-c2ccc3nc(C)c(-c4cnc(N)c(C(F)(F)F)c4)n3n2)ccc1OCCCN [Example 25, 5-{6-[4-(3-Amino-propoxy)-3-methoxy-phenyl]-2-methyl-imidazo[1,2-b]pyridazin-3-yl}-3-trifluoromethyl-pyridin-2-ylamine] |
| 51 | 3030 | 41 | 98 | COc1ccc(-c2ccc3nc(C)c(-c4ccnc(N(C)CCN(C)C)n4)n3n2)cc1OC [Example 88, N-{4-[6-(3,4-Dimethoxy-phenyl)-2-methyl-imidazo[1,2-b]pyridazin-3-yl]-pyrimidin-2-yl}-N,N′,N′-trimethyl-ethane-1,2-diamine] |
| 111 | 1570 | 1090 | 613 | COc1ccc(-c2ccc3nc(C)c(-c4ccc(N5CCOCC5)nc4)n3n2)cc1OC [Example 5] |
| 110 | 613 | 2390 | 536 | COc1ccc(-c2ccc3nc(C)c(-c4ccc(N5CCNCC5)nc4)n3n2)cc1OC [Example 11, 6-(3,4-Dimethoxy-phenyl)-2-methyl-3-(6-piperazin-1-yl-pyridin-3-yl)-imidazo[1,2-b]pyridazine] |
| 40 | > 9100 | 174 | 65 | COCCOCCOCCOc1ccc(-c2ccc3nc(C)c(-c4cnc(N)c(C(F)(F)F)c4)n3n2)cc1OC [Example 84, 5-[6-(3-Methoxy-4-{2-[2-(2-methoxy-ethoxy)-ethoxy]-ethoxy}-phenyl)-2-methyl-imidazo[1,2-b]pyridazin-3-yl]-3-trifluoromethyl-pyridin-2-ylamine] |
| 368 | > 9100 | > 9100 | > 9100 | COc1cccc(C(=O)NCCOc2ccc(-c3ccc4nc(C)c(-c5cnc(N)c(C(F)(F)F)c5)n4n3)cc2OC)c1 [Example 39] |
| 5.9 | 150 | 69 | 157 | COc1ccc(-c2ccc3nc(C)c(-c4cnc(N)c(C(F)(F)F)c4)n3n2)cc1OC [Example 15, 5-[6-(3,4-Dimethoxy-phenyl)-2-methyl-imidazo[1,2-b]pyridazin-3-yl]-3-trifluoromethyl-pyridin-2-ylamine] |
| 371 | > 9100 | > 9100 | 2640 | COc1cccc(NC(=O)NCCOc2ccc(-c3ccc4nc(C)c(-c5cnc(N)c(C(F)(F)F)c5)n4n3)cc2OC)c1 [Example 59] |
| 233 | > 9100 | > 9100 | 2300 | COc1ccc(C(=O)NCCOc2ccc(-c3ccc4nc(C)c(-c5cnc(N)c(C(F)(F)F)c5)n4n3)cc2OC)cc1OC [Example 37] |
